Measured values published in US12708630B2, “Combined therapy of 4′-thio-5-aza-2′-deoxycytidine and Venetoclax” (PINOTBIO, INC., priority 2021, dated 2026).

Tests used:
Test in all cases: drug activity profiling cytotoxicity
Assay type in all cases: cell-based
HCT-116 = settings: Homo sapiens; HCT-116 cell line, Colon; read-out: Aza-T-dCyd IC50
Procedure: (§1) To obtain a biomarker for Aza-T-dCyd, drug activity profiling analysis was performed to evaluate the cytotoxicity of 200 cell lines.
(§2) The drug responsiveness analysis of Aza-T-dCyd through drug activity profiling and genomic analysis of 200 cell lines confirmed the potent efficacy of Aza-T-dCyd in various solid tumors (Table 2).

A-673 = settings: Homo sapiens, A673; A-673 cell line, Sarcoma; read-out: Aza-T-dCyd IC50
Procedure: as §1, §2

LS411N = settings: Homo sapiens, LS-411N; LS411N cell line, Colon; read-out: Aza-T-dCyd IC50
Procedure: as §1, §2

A375 = settings: Homo sapiens, A-375; A375 cell line, Skin (Melanoma); read-out: Aza-T-dCyd IC50
Procedure: as §1, §2

MV-4-11 = settings: Homo sapiens, MV4-11; MV-4-11 cell line, AML; read-out: Aza-T-dCyd IC50
Procedure: as §1, §2

RL95-2 = settings: Homo sapiens; RL95-2 cell line, Female GU (Uterus); read-out: Aza-T-dCyd IC50
Procedure: as §1, §2

EB2 = settings: Homo sapiens; EB2 cell line, Burkitt's lymphoma; read-out: Aza-T-dCyd IC50
Procedure: as §1, §2

J82 = settings: Homo sapiens; J82 cell line, Bladder; read-out: Aza-T-dCyd IC50
Procedure: as §1, §2

SJRH30 = settings: Homo sapiens; SJRH30 cell line, Sarcoma; read-out: Aza-T-dCyd IC50
Procedure: as §1, §2

A498 = settings: Homo sapiens; A498 cell line, Kidney; read-out: Aza-T-dCyd IC50
Procedure: as §1, §2

WM-266-4 = settings: Homo sapiens; WM-266-4 cell line, Skin (Melanoma); read-out: Aza-T-dCyd IC50
Procedure: as §1, §2

WiDr = settings: Homo sapiens; WiDr cell line, Colon; read-out: Aza-T-dCyd IC50
Procedure: as §1, §2

DLD-1 = settings: Homo sapiens; DLD-1 cell line, Colon; read-out: Aza-T-dCyd IC50
Procedure: as §1, §2

BE(2)C = settings: Homo sapiens; BE(2)C cell line, CNS (Neuroblastoma); read-out: Aza-T-dCyd IC50
Procedure: as §1, §2

NALM-6 = settings: Homo sapiens; NALM-6 cell line, ALL; read-out: Aza-T-dCyd IC50
Procedure: as §1, §2

NCI-H747 = settings: Homo sapiens; NCI-H747 cell line, Colon; read-out: Aza-T-dCyd IC50
Procedure: as §1, §2

NCIH446 = settings: Homo sapiens, NCI-H446; NCIH446 cell line, Lung (SCLC); read-out: Aza-T-dCyd IC50
Procedure: as §1, §2

SW900 = settings: Homo sapiens; SW900 cell line, Lung (NSCLC); read-out: Aza-T-dCyd IC50
Procedure: as §1, §2

Hs 936.T(C1) = Hs 936.T(C1) cell line, Skin (Melanoma); read-out: Aza-T-dCyd IC50
Procedure: as §1, §2

Cal 27 = settings: Homo sapiens; Cal 27 cell line, Head and Neck; read-out: Aza-T-dCyd IC50
Procedure: as §1, §2

LS1034 = settings: Homo sapiens, LS-1034; LS1034 cell line, Colon; read-out: Aza-T-dCyd IC50
Procedure: as §1, §2

AU565 = settings: Homo sapiens; AU565 cell line, Breast; read-out: Aza-T-dCyd IC50
Procedure: as §1, §2

639-V = settings: Homo sapiens; 639-V cell line, Bladder; read-out: Aza-T-dCyd IC50
Procedure: as §1, §2

A431 = settings: Homo sapiens, A-431; A431 cell line, Skin (Head and Neck); read-out: Aza-T-dCyd IC50
Procedure: as §1, §2

C-4 II = settings: Homo sapiens; C-4 II cell line, Female GU (Cervix); read-out: Aza-T-dCyd IC50
Procedure: as §1, §2

CCRFCEM = settings: Homo sapiens, CCRF-CEM; CCRFCEM cell line, ALL; read-out: Aza-T-dCyd IC50
Procedure: as §1, §2

DU145 = settings: Homo sapiens, DU-145; DU145 cell line, Prostate; read-out: Aza-T-dCyd IC50
Procedure: as §1, §2

PC-3 = settings: Homo sapiens; PC-3 cell line, Prostate; read-out: Aza-T-dCyd IC50
Procedure: as §1, §2

NCI-H508 = settings: Homo sapiens; NCI-H508 cell line, Colon; read-out: Aza-T-dCyd IC50
Procedure: as §1, §2

DMS53 = settings: Homo sapiens, DMS-53; DMS53 cell line, Lung (SCLC); read-out: Aza-T-dCyd IC50
Procedure: as §1, §2

Structure (SMILES): Nc1ncn([C@H]2CC(O)[C@@H](CO)S2)c(=O)n1 (stereo partly drawn) [Aza-T-dCyd, 4′-thio-5-aza-2′-deoxycytidine]
- IC50 (HCT-116): 100 nM
- IC50 (A-673): 698 nM
- IC50 (LS411N): 265 nM
- IC50 (A375): 66.7 nM
- IC50 (MV-4-11): 183 nM
- IC50 (RL95-2): 705 nM
- IC50 (EB2): 8.19 µM
- IC50 (J82): 1980 nM
- IC50 (SJRH30): 291 nM
- IC50 (A498): 73.8 nM
- IC50 (WM-266-4): 429 nM
- IC50 (WiDr): 263 nM
- IC50 (DLD-1): 221 nM
- IC50 (BE(2)C): 373 nM
- IC50 (NALM-6): 33.8 nM
- IC50 (NCI-H747): 319 nM
- IC50 (NCIH446): 3.04 µM
- IC50 (SW900): 1980 nM
- IC50 (Hs 936.T(C1)): 398 nM
- IC50 (Cal 27): 319 nM
- IC50 (LS1034): 1410 nM
- IC50 (AU565): > 10 µM
- IC50 (639-V): 1570 nM
- IC50 (A431): 256 nM
- IC50 (C-4 II): 773 nM
- IC50 (CCRFCEM): 119 nM
- IC50 (DU145): 432 nM
- IC50 (PC-3): 441 nM
- IC50 (NCI-H508): 542 nM
- IC50 (DMS53): 4.22 µM
